As usually defined, the EC50 is the concentration that produces a half-maximal response.

Common to all, as to format: cell-based
In one assay the target is T1, GABARho1 (GABA receptor) (Homo sapiens, UniProt P24046).
T1 construct: expressed in transfected cells; host or cells: HEK cells are stated only for the free probe
Put plainly: YPetCI BRET sensor inserted in GABARho1 subunit. The conditions noted are these: with or without untagged GABARho1 subunit, FIG. 13G. From the text:
FIG. 13: Biosensors allowing to track Cys-loop receptor family activity. Insertion of NG-CF-NL or NL-CF-YFP probes in the second intracellular loop of cationic receptors (A) allows to track activity of nicotinic (B) or serotonin receptors (C). A BRET probe called YPetCI was also developed to sense intracellular anionic flux (D and F). When inserted in the second intracellular loop of GABARho1 subunit this probe allows to track activity of the GABA receptor (G).
We also developed a BRET probe allowing to sense anionic flux by fusing the cDNA of a chloride sensitive variant of YFP (YFP Chlore or YPetCI) to the cDNA of nLuc (FIG. 13D). When expressed in HEK cells this probe is able to detect the anionic influx generated by VRAC channel opening following a hypotonic challenge (FIG. 13F). Based on this probe, we generated a biosensor allowing to measure the activity of the anionic GABA receptors. We inserted the cDNA of the YPetCI sensor in the second intracellular loop of the GABARho1 subunit (FIG. 13E).
(In BRET a luciferase serves as donor, and the signal depends on an acceptor being close.)

The target in a further assay is T2, hP2X4 (Homo sapiens, UniProt Q99571).
T2 construct: expressed in transfected cells; host or cells: HEK293T
T2 sequence (Q99571 1-388): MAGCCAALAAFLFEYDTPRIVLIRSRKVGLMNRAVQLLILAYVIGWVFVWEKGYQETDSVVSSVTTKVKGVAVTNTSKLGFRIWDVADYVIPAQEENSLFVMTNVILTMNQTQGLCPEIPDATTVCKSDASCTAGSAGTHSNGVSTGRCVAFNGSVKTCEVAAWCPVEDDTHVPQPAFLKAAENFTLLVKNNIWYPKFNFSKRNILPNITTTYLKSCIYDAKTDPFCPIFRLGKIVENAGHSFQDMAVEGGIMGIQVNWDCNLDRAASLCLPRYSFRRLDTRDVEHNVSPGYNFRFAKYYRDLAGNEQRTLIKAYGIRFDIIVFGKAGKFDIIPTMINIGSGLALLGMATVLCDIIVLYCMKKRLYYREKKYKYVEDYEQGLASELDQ
Kind of assay: hP2X4-NeonGreen-Calflux-nLuc BRET probe in HEK293T cells. The conditions noted are these: read-out: EC50 of activation of hP2X4 probe. The text has this: (§1) Values were normalized to the maximal efficacy measured individually for each probe and represent the mean of three independent experiments.
(§2) We constructed human and murine P2X-NeonGreen-Calflux-nLuc probes wherein the DNA sequence encoding the seven human or mouse P2X subunits are individually fused in C-terminal to the calflux calcium sensor sandwiched in between the nanoluciferase and mNeonGreen (FIG. 11 left panel).

In the next assay the target is T3, hP2X5 (Homo sapiens, UniProt Q93086).
T3 construct: expressed in transfected cells; host or cells: HEK293T
Kind of assay: hP2X5-NeonGreen-Calflux-nLuc BRET probe in HEK293T cells. The conditions noted are these: read-out: EC50 of activation of hP2X5 probe.
Description: as §1, §2

In the next assay the target is T4, P2X2 (Rattus norvegicus, UniProt P49653).
T4 construct: expressed in transfected cells; host or cells: HEK293T
T4 sequence (P49653 1-472): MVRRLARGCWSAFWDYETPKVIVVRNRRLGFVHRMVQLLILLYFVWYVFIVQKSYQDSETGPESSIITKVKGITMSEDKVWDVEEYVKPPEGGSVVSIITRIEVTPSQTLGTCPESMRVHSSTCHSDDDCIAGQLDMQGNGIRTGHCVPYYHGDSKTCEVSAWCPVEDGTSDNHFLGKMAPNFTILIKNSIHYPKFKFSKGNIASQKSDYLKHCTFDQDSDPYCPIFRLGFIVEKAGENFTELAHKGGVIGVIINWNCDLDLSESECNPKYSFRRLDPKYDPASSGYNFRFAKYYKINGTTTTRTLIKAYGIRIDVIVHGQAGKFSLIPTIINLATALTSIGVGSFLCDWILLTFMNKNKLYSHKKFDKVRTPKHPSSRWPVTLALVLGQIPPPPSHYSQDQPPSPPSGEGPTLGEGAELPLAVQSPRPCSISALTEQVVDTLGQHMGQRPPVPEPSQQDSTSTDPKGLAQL
Put plainly: rP2X2-nLuc-Calflux-YFP BRET probe in HEK293T cells. The conditions noted are these: read-out: EC50 of activation of P2X2-NLuc-CalFlux-YFP probe.

For another assay, the target named is T5, TRPV1 channel (Homo sapiens, UniProt Q8NER1).
T5 construct: expressed in transfected cells; host or cells: HEK293T
Put plainly: hTRPV1-nLuc-Calflux-YFP (or mNeonGreen) BRET probe in HEK293T cells. The conditions noted are these: TRPV1-nLuc-Calflux-YFP/mNeonGreen probe.

Another assay concerns the target T6, TRPV1 ion channel (Homo sapiens, UniProt Q8NER1).
T6 construct: expressed in transfected cells; host or cells: HEK293T
Put plainly: mNeonGreen-Calflux-nLuc-hTRPV1 BRET biosensor in HEK293T cells. The conditions noted are these: kinetic measurement, FIG. 8A.

For another assay, the target named is T7, hP2X2 (Homo sapiens, UniProt Q9UBL9).
T7 construct: expressed in transfected cells; host or cells: HEK293T
T7 sequence (Q9UBL9 1-471): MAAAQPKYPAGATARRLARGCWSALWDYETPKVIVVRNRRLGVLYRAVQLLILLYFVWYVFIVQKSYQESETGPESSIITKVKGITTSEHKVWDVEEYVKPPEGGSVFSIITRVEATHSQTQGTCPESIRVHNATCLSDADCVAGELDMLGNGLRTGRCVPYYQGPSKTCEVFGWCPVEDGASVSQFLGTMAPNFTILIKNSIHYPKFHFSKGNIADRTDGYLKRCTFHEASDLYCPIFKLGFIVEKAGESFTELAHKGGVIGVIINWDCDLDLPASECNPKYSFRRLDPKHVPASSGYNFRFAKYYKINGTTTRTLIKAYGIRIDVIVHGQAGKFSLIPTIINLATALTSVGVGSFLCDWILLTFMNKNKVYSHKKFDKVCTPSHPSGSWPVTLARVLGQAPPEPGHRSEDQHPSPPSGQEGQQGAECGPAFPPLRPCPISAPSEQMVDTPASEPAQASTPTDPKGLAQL
Put plainly: hP2X2-NeonGreen-Calflux-nLuc BRET probe in HEK293T cells. To be noted: read-out: EC50 of activation of hP2X2 probe.
Description: as §1, §2

In the next assay the target is T8, mP2X4 (Mus musculus, UniProt Q9JJX6).
T8 construct: expressed in transfected cells; host or cells: HEK293T
T8 sequence (Q9JJX6 1-388): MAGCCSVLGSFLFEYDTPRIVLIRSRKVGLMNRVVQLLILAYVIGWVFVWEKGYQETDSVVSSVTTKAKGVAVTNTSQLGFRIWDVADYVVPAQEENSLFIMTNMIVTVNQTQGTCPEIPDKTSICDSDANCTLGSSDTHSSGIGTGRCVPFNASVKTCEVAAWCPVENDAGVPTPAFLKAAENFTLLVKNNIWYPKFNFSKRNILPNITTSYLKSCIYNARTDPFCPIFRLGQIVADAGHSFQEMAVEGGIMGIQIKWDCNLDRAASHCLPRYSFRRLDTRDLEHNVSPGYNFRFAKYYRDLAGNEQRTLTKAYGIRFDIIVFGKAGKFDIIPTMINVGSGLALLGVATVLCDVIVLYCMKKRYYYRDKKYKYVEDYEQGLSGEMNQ
Kind of assay: mP2X4-NeonGreen-Calflux-nLuc BRET probe in HEK293T cells. The conditions noted are these: FIG. 11.
Description: as §1, §2

In the next assay the target is T9, hP2X7 (Homo sapiens, UniProt Q99572).
T9 construct: expressed in transfected cells; host or cells: HEK293T
T9 sequence (Q99572 1-595): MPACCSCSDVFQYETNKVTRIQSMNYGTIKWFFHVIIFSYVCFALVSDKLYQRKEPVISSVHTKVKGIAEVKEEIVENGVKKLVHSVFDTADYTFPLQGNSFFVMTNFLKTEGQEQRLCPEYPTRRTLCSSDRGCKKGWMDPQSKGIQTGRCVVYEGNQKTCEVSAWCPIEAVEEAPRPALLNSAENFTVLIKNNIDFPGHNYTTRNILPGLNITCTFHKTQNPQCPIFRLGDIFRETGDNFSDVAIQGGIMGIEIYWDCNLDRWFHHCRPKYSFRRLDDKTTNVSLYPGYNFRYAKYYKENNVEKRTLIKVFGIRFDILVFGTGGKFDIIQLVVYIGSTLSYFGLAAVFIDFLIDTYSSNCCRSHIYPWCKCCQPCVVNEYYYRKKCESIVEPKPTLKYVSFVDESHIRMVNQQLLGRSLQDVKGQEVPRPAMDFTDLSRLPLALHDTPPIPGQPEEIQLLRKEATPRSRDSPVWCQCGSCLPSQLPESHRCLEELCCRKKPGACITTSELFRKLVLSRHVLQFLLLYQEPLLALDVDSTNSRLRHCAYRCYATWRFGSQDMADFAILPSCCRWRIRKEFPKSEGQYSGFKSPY
Kind of assay: hP2X7-NeonGreen-Calflux-nLuc BRET probe in HEK293T cells. The conditions noted are these: read-out: EC50 of activation of hP2X7 probe.
Description: as §1, §2

T1 sequence (P24046 22-479): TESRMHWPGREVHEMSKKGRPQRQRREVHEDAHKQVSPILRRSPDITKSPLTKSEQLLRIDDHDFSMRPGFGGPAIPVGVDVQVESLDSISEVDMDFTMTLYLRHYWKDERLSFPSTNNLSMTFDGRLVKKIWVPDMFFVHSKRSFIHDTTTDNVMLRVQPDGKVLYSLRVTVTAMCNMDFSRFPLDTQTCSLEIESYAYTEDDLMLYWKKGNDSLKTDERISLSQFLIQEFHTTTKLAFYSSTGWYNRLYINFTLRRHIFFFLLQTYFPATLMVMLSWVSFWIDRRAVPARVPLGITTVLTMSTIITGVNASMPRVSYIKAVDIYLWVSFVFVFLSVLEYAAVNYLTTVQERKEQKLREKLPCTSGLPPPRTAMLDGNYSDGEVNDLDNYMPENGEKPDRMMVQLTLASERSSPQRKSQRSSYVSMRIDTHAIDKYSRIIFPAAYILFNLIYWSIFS
T3 sequence (Q93086 whole entry): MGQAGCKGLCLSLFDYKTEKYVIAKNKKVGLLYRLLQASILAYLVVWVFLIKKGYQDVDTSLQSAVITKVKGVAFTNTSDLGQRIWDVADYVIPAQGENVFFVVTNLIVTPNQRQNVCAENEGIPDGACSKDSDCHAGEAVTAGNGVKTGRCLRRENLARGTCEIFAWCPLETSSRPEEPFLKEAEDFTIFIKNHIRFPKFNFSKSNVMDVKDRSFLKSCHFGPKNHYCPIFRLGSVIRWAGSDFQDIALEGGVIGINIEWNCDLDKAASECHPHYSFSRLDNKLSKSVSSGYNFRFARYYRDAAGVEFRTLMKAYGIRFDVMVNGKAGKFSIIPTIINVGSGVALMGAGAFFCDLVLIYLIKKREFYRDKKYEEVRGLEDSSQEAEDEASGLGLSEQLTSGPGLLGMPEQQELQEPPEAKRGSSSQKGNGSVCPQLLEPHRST
T5 sequence (Q8NER1 whole entry): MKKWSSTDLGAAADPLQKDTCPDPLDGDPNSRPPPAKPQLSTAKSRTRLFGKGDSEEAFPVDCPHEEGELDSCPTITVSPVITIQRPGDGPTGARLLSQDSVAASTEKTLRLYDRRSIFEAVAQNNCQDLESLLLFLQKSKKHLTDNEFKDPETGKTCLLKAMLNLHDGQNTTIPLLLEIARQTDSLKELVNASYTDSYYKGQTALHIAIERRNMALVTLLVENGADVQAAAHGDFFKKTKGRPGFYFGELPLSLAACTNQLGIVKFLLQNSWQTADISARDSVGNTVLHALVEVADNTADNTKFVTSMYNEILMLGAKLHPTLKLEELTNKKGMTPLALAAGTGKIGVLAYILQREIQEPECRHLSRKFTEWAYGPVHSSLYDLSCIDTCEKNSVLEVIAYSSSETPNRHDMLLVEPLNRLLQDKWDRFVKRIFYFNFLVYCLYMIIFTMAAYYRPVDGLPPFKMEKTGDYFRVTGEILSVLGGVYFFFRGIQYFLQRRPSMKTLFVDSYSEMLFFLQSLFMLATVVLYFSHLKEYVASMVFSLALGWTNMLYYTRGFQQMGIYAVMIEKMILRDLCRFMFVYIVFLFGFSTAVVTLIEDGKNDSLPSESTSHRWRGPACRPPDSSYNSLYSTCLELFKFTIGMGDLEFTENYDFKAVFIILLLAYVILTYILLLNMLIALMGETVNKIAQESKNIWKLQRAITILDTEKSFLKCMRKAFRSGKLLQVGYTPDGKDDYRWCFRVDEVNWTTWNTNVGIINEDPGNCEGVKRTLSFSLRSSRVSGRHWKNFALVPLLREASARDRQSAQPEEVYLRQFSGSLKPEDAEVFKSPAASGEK
T6 sequence (Q8NER1 whole entry): as above

Take `NCCCC(=O)O` [GABA, γ-aminobutyric acid]: the “modulation of BRET signal” value on GABARho1 (GABA receptor) is reported as “modulated”.
For `Nc1ncnc2c1ncn2[C@@H]1O[C@H](COP(=O)(O)OP(=O)(O)OP(=O)(O)O)[C@@H](O)[C@H]1O` [ATP], the concentration for a half-maximal effect (EC50) stood at 490 nM on hP2X4, 480 nM at hP2X5, 888 ± 274 nM at P2X2 and 1630 nM on hP2X2. Further, the “change of BRET signal on stimulation” value at TRPV1 channel is on record as “does not respond”. Further, the “change of basal BRET after exposure” value on TRPV1 ion channel was “only faintly and transiently increased”. Also, the “modulation of basal BRET signal” value on mP2X4 is given as “modulated in a dose-dependent manner”.
As for BzATP, the EC50 at hP2X7 was found to be 49000 nM.
